Toxic doses and inconclusive results are not listed.
Tested on: L1210 leukemia ip in BDF1 mice, survival T/C
Assay: NCI In Vivo Anticancer Drug Screen. Data for tumor model L1210 Leukemia (intraperitoneal) in B6D2F1 (BDF1) mice
Conditions: endpoint: mean survival time, higher = longer survival
Method in brief: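 Each compound was tested against a transplantable tumor grown in mice. The endpoint was survival, with treated animals benchmarked against vehicle controls as a simple ratio.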

[1] = dose: 100.0 mg/kg/injection, schedule: Q04DX002 (ip), vehicle: Klucel (hydroxypropylcellulose) (HPC)
[2] = dose: 200.0 mg/kg/injection, schedule: Q04DX002 (ip), vehicle: Klucel (hydroxypropylcellulose) (HPC)
[3] = dose: 400.0 mg/kg/injection, schedule: Q04DX002 (ip), vehicle: Klucel (hydroxypropylcellulose) (HPC)
[4] = dose: 100.0 mg/kg/injection, schedule: Q01DX001 (ip), vehicle: saline
[5] = dose: 200.0 mg/kg/injection, schedule: Q01DX001 (ip), vehicle: saline

**Q.** Which results are given for `CN(N=O)C(=O)NC1CCOCC1`?
**A.** T/C (dose: 10.0 mg/kg/injection, schedule: Q01DX001 (ip), vehicle: saline): 102 % of control; T/C (dose: 20.0 mg/kg/injection, schedule: Q01DX001 (ip), vehicle: saline): 103 % of control; T/C (dose: 40.0 mg/kg/injection, schedule: Q01DX001 (ip), vehicle: saline): 104 % of control; T/C (dose: 60.0 mg/kg/injection, schedule: Q01DX001 (ip), vehicle: saline): 109 % of control; T/C (dose: 90.0 mg/kg/injection, schedule: Q01DX001 (ip), vehicle: saline): 102 % of control; T/C (dose: 187.0 mg/kg/injection, schedule: Q01DX001 (ip), vehicle: saline): 119 % of control; T/C (dose: 250.0 mg/kg/injection, schedule: Q01DX001 (ip), vehicle: saline): 112 % of control; T/C (dose: 500.0 mg/kg/injection, schedule: Q01DX001 (ip), vehicle: saline): 159 % of control; T/C (dose: 750.0 mg/kg/injection, schedule: Q01DX001 (ip), vehicle: saline): 187 % of control

**Q.** How did the T/C (dose: 100.0 mg/kg/injection, schedule: Q01DX001 (ip), vehicle: saline sonified) turn out when `CCOC(=O)c1ccc(NCC(=N)N)cc1` was run?
**A.** Its T/C is 103 % of control.

**Q.** And the T/C (dose: 200.0 mg/kg/injection, schedule: Q01DX001 (ip), vehicle: saline sonified)?
**A.** Its T/C is 100 % of control.

**Q.** What does the source list for `CCN(CC)CCCC(C)NC(=O)c1ccc(N(C)C)nc1` (stereo not given)?
**A.** T/C (dose: 25.0 mg/kg/injection, schedule: Q01DX009 (ip), vehicle: water): 97 % of control; T/C (dose: 50.0 mg/kg/injection, schedule: Q01DX009 (ip), vehicle: water): 104 % of control; T/C (dose: 100.0 mg/kg/injection, schedule: Q01DX009 (ip), vehicle: water): 101 % of control; T/C (dose: 200.0 mg/kg/injection, schedule: Q01DX009 (ip), vehicle: water): 104 % of control; T/C (dose: 400.0 mg/kg/injection, schedule: Q01DX009 (ip), vehicle: water): 101 % of control

**Q.** For `NC(N)=NN=C1CCCCC1`, which T/C (dose: 15.0 mg/kg/injection, schedule: Q01DX Z (ip), vehicle: saline) is on record?
**A.** The T/C was 92 % of control.

**Q.** What about the T/C (dose: 30.0 mg/kg/injection, schedule: Q01DX Z (ip), vehicle: saline) of the same compound?
**A.** Its T/C is 92 % of control.

**Q.** What about the T/C (dose: 60.0 mg/kg/injection, schedule: Q01DX Z (ip), vehicle: saline) of the same compound?
**A.** The T/C was 102 % of control.

**Q.** What about the T/C (dose: 60.0 mg/kg/injection, schedule: Q01DX Z (oral), vehicle: saline) of the same compound?
**A.** The T/C was 105 % of control.

**Q.** What about the T/C (dose: 120.0 mg/kg/injection, schedule: Q01DX Z (ip), vehicle: saline) of the same compound?
**A.** The T/C was 97 % of control.

**Q.** And the T/C (dose: 120.0 mg/kg/injection, schedule: Q01DX Z (oral), vehicle: saline)?
**A.** Its T/C is 108 % of control.

**Q.** And the T/C (dose: 240.0 mg/kg/injection, schedule: Q01DX Z (oral), vehicle: saline)?
**A.** The T/C was 100 % of control.

**Q.** And the T/C (dose: 480.0 mg/kg/injection, schedule: Q01DX Z (oral), vehicle: saline)?
**A.** The T/C was 103 % of control.

**Q.** With `COc1cc(NC(=O)Nc2cc([N+](=O)[O-])ccc2C)c(OC)cc1Cl` as the compound, how does the T/C [1] read?
**A.** Its T/C is 106 % of control.

**Q.** And the T/C [2]?
**A.** The T/C was 97 % of control.

**Q.** What about the T/C [3] of the same compound?
**A.** Its T/C is 95 % of control.

**Q.** `CC1=CC(=O)C(c2ccc(O)cc2O)=CC1=O` was tested. Which T/C (dose: 75.0 mg/kg/injection, schedule: Q01DX001 (ip), vehicle: other) did it give?
**A.** Its T/C is 101 % of control.

**Q.** What does the source list for `CC1(C)C2CCC1(CS(=O)(=O)O)C(=O)C2Br.[Ag]` (stereo not given)?
**A.** T/C (dose: 1.56 mg/kg/injection, schedule: Q01DX009 (ip), vehicle: saline): 101 % of control; T/C (dose: 3.12 mg/kg/injection, schedule: Q01DX009 (ip), vehicle: saline): 108 % of control; T/C (dose: 6.25 mg/kg/injection, schedule: Q01DX009 (ip), vehicle: saline): 90 % of control; T/C (dose: 12.5 mg/kg/injection, schedule: Q01DX009 (ip), vehicle: saline with Tween-80): 93 % of control

**Q.** With `O=[n+]1c2c(n([O-])c3ccccc31)-c1cccc3cccc-2c13` as the compound, how does the T/C (dose: 50.0 mg/kg/injection, schedule: Q04DX003 (ip), vehicle: saline) read?
**A.** Its T/C is 96 % of control.

**Q.** And the T/C [4]?
**A.** Its T/C is 88 % of control.

**Q.** What about the T/C (dose: 100.0 mg/kg/injection, schedule: Q04DX003 (ip), vehicle: saline) of the same compound?
**A.** The T/C was 93 % of control.

**Q.** And the T/C (dose: 125.0 mg/kg/injection, schedule: Q01DX Z (ip), vehicle: methylcellulose (MC))?
**A.** Its T/C is 98 % of control.

**Q.** What about the T/C [5] of the same compound?
**A.** The T/C was 94 % of control.

**Q.** And the T/C (dose: 200.0 mg/kg/injection, schedule: Q04DX003 (ip), vehicle: saline)?
**A.** The T/C was 93 % of control.

**Q.** Which T/C [1] does the source give for `Cc1cc(Cl)c(Cl)cc1NC(=O)c1ccccc1Cl` here?
**A.** Its T/C is 97 % of control.

**Q.** And the T/C [2]?
**A.** Its T/C is 97 % of control.

**Q.** What about the T/C [3] of the same compound?
**A.** The T/C was 94 % of control.

**Q.** Which T/C (dose: 50.0 mg/kg/injection, schedule: Q01DX001 (ip), vehicle: saline) does the source give for `CC(C)(CBr)CC(=O)NC1CCCCC1` here?
**A.** Its T/C is 98 % of control.

**Q.** What about the T/C [4] of the same compound?
**A.** Its T/C is 98 % of control.

**Q.** What about the T/C [5] of the same compound?
**A.** The T/C was 96 % of control.

**Q.** And the T/C (dose: 400.0 mg/kg/injection, schedule: Q01DX001 (ip), vehicle: saline)?
**A.** Its T/C is 104 % of control.

From PubChem BioAssay AID248 (DTP/NCI, 2004)
